The test system of the assay is Wnt. The assay can be described thus: Wnt reporter assay: SP5 promoter-driven firefly luciferase in SW480 cells. It is filed as cell-based. As to conditions: Homo sapiens; SW480 colon cancer cells with SP5 promoter (TCF/LEF) luciferase reporter; 24-40 h after compound addition; normalized to DMSO; read-out: Wnt inhibition, IC50. From the text: Another screening assay for Wnt activity is described as follows. Reporter cell lines can be generated by stably transducing cells of cancer cell lines (e.g., colon cancer) with a lentiviral construct that include a wnt-responsive promoter driving expression of the firefly luciferase gene.
Lentiviral constructs can be made in which the SP5 promoter, a promoter having eight TCF/LEF binding sites derived from the SP5 promoter, is linked upstream of the firefly luciferase gene. The lentiviral constructs can also include a hygromycin resistance gene as a selectable marker. The SP5 promoter construct can be used to transduce SW480 cells, a colon cancer cell line having a mutated APC gene that generates a truncated APC protein, leading to de-regulated accumulation of β-catenin.
Cultured SW480 cells bearing a reporter construct can be distributed at approximately 10,000 cells per well into 96 well or 384 well plates. Compounds from a small molecule compound library can then be added to the wells in half-log dilutions using a ten micromolar top concentration. A series of control wells for each cell type receive only buffer and compound solvent. Twenty-four to forty hours after the addition of compound, reporter activity for luciferase can be assayed, for example, by addition of the BrightGlo luminescence reagent (Promega) and the Victor3 plate reader (Perkin Elmer). Readings can be normalized to DMSO only treated cells, and normalized activities can then be used in the IC50 calculations.

The text below walks through data of US9855272B2, “1H-pyrazolo[3,4-B]pyridines and therapeutic uses thereof” (Samumed, LLC, priority 2009, dated 2018).

The structures appear in SMILES notation.

In the case of `CCC(=O)Nc1cncc(-c2cnc3[nH]nc(-c4nc5c(-c6cccnc6)cncc5[nH]4)c3c2)c1` [Compound 47, N-(5-(3-(7-(pyridin-3-yl)-3H-imidazo[4,5-c]pyridin-2-yl)-1H-pyrazolo[3,4-b]pyridin-5-yl)pyridin-3-yl)propionamide], the IC50 was in the range of 7000 to 10000 nM. Then `CC(C)CC(=O)Nc1cncc(-c2cnc3[nH]nc(-c4nc5ccncc5[nH]4)c3c2)c1` [Compound 53, N-(5-(3-(3H-imidazo[4,5-c]pyridin-2-yl)-1H-pyrazolo[3,4-b]pyridin-5-yl)pyridin-3-yl)-3-methylbutanamide], with over 10000 nM; and `c1cncc(-c2cnc3[nH]nc(-c4nc5c(-c6cccnc6)cncc5[nH]4)c3c2)c1` [Compound 45], with 200 to 1200 nM; and `c1cncc(-c2cnc3[nH]nc(-c4nc5ccncc5[nH]4)c3c2)c1` [Compound 46], with 1000 to 2000 nM.

Regarding `O=C(Nc1cncc(-c2cnc3[nH]nc(-c4nc5c(-c6cccc(F)c6)cncc5[nH]4)c3c2)c1)N1CCOCC1` [Compound 62, N-(5-(3-(7-(3-fluorophenyl)-3H-imidazo[4,5-c]pyridin-2-yl)-1H-pyrazolo[3,4-b]pyridin-5-yl)pyridin-3-yl)morpholine-4-carboxamide], the IC50 was under 20 nM. For the compound `CCC(=O)Nc1cncc(-c2cnc3[nH]nc(-c4nc5c(-c6ccc(F)cc6)cncc5[nH]4)c3c2)c1` [Compound 50, N-(5-(3-(7-(4-fluorophenyl)-3H-imidazo[4,5-c]pyridin-2-yl)-1H-pyrazolo[3,4-b]pyridin-5-yl)pyridin-3-yl)propionamide], the IC50 was under 1.5 nM. Turning to `CC(C)CC(=O)Nc1cncc(-c2cnc3[nH]nc(-c4nc5c(N6CCN(C)CC6)cncc5[nH]4)c3c2)c1` [Compound 57, 3-methyl-N-(5-(3-(7-(4-methylpiperazin-1-yl)-3H-imidazo[4,5-c]pyridin-2-yl)-1H-pyrazolo[3,4-b]pyridin-5-yl)pyridin-3-yl)butanamide], the IC50 fell in the range of 1000 to 4000 nM. In the case of `Cc1ccncc1-c1cnc2[nH]nc(-c3nc4ccncc4[nH]3)c2c1` [Compound 29, 3-(3H-imidazo[4,5-c]pyridin-2-yl)-5-(4-methylpyridin-3-yl)-1H-pyrazolo[3,4-b]pyridine], the IC50 fell in the range of 3000 to 5000 nM.

For the compound `CCC(=O)Nc1cncc(-c2cnc3[nH]nc(-c4nc5c(N6CCOCC6)cncc5[nH]4)c3c2)c1` [Compound 55, N-(5-(3-(7-morpholino-3H-imidazo[4,5-c]pyridin-2-yl)-1H-pyrazolo[3,4-b]pyridin-5-yl)pyridin-3-yl)propionamide], the IC50 is over 10000 nM. Consider `CCC(=O)Nc1cncc(-c2cnc3[nH]nc(-c4nc5c(-c6ccccc6F)cncc5[nH]4)c3c2)c1` [Compound 51, N-(5-(3-(7-(2-fluorophenyl)-3H-imidazo[4,5-c]pyridin-2-yl)-1H-pyrazolo[3,4-b]pyridin-5-yl)pyridin-3-yl)propionamide], for which the IC50 was under 45 nM. To `CC(C)C(=O)Nc1cncc(-c2cnc3[nH]nc(-c4nc5c(N6CCN(C)CC6)cncc5[nH]4)c3c2)c1` [Compound 59, N-(5-(3-(7-(4-methylpiperazin-1-yl)-3H-imidazo[4,5-c]pyridin-2-yl)-1H-pyrazolo[3,4-b]pyridin-5-yl)pyridin-3-yl)isobutyramide] belongs 2000 to 3000 nM; to `CCC(=O)Nc1cncc(-c2cnc3[nH]nc(-c4nc5c(-c6cccc(F)c6)cncc5[nH]4)c3c2)c1` [Compound 49, N-(5-(3-(7-(3-fluorophenyl)-3H-imidazo[4,5-c]pyridin-2-yl)-1H-pyrazolo[3,4-b]pyridin-5-yl)pyridin-3-yl)propionamide], under 5 nM; to `CN(C)C(=O)Nc1cncc(-c2cnc3[nH]nc(-c4nc5c(-c6cccc(F)c6)cncc5[nH]4)c3c2)c1` [Compound 66, 3-(5-(3-(7-(3-fluorophenyl)-3H-imidazo[4,5-c]pyridin-2-yl)-1H-pyrazolo[3,4-b]pyridin-5-yl)pyridin-3-yl)-1,1-dimethylurea], under 15 nM. To `CC(C)C(=O)Nc1cncc(-c2cnc3[nH]nc(-c4nc5ccncc5[nH]4)c3c2)c1` [Compound 52, N-(5-(3-(3H-imidazo[4,5-c]pyridin-2-yl)-1H-pyrazolo[3,4-b]pyridin-5-yl)pyridin-3-yl)isobutyramide] belongs over 10000 nM.
